From publication PMC12290280 (Plant and Cell Physiology, 2025)

What was measured:
Assay in all cases: radiometric in vitro kinase assay, autoradiography
Assay type in all cases: biochemical
His-Raf12 = biological target: T1, His-Raf12 (Arabidopsis thaliana, UniProt F4JMR7); conditions: autophosphorylation and histone phosphorylation; 200 µM ATP plus [γ-32P]ATP, labelled compound; 10 mM MgCl2; pH 7.5; room temperature
T1 construct: gene At4g23050; 6 x His tag, pET30a(+), expressed in E. coli BL21 (DE3); insert from cDNA of ABA-treated Col-0 leaf epidermis
T1 sequence (F4JMR7 1-735): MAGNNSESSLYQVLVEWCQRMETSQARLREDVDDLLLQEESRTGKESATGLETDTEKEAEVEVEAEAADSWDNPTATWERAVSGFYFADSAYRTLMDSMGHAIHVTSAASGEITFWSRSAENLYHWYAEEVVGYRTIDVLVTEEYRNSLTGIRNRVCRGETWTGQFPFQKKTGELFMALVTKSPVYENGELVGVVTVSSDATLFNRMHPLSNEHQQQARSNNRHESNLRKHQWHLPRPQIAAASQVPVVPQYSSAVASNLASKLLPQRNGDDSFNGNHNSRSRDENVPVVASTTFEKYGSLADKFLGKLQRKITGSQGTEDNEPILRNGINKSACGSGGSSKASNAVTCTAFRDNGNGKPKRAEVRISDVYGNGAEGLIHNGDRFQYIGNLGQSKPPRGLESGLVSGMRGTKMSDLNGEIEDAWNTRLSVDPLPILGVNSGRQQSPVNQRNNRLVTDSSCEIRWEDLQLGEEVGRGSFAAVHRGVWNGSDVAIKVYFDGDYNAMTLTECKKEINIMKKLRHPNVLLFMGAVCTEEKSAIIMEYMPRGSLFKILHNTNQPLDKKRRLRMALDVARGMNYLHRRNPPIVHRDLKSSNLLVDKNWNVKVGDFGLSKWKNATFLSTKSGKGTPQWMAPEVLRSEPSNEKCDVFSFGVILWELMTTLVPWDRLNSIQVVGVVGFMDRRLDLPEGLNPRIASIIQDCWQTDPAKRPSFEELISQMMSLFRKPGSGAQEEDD

His-OST1 = biological target: T2, His-OST1 (Arabidopsis thaliana, UniProt Q940H6); conditions: 200 µM ATP plus [γ-32P]ATP, 10 mM MgCl2, pH 7.5, room temperature
T2 construct: gene SRK2E; 6 x His tag, expressed in E. coli BL21 (DE3); plasmid from Takahashi et al. 2020
T2 sequence (Q940H6 1-362): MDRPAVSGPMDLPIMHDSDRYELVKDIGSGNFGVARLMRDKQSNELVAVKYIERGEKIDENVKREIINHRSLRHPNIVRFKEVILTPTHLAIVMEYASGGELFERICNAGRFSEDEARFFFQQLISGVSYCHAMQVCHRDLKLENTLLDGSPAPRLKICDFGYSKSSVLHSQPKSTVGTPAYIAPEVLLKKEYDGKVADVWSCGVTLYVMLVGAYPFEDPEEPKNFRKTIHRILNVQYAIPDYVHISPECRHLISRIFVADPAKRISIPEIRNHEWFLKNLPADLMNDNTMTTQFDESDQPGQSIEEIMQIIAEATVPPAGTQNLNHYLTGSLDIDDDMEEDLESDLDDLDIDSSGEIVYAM

His-M3K∂6 = biological target: T3, His-M3K∂6 (Arabidopsis thaliana, UniProt Q9C9U5); conditions: autophosphorylation and histone phosphorylation; 200 µM ATP plus [γ-32P]ATP, labelled compound; 10 mM MgCl2; pH 7.5; room temperature
T3 construct: gene SIS8; 6 x His tag, expressed in E. coli BL21 (DE3); plasmid from Takahashi et al. 2020
T3 sequence (Q9C9U5 1-1030): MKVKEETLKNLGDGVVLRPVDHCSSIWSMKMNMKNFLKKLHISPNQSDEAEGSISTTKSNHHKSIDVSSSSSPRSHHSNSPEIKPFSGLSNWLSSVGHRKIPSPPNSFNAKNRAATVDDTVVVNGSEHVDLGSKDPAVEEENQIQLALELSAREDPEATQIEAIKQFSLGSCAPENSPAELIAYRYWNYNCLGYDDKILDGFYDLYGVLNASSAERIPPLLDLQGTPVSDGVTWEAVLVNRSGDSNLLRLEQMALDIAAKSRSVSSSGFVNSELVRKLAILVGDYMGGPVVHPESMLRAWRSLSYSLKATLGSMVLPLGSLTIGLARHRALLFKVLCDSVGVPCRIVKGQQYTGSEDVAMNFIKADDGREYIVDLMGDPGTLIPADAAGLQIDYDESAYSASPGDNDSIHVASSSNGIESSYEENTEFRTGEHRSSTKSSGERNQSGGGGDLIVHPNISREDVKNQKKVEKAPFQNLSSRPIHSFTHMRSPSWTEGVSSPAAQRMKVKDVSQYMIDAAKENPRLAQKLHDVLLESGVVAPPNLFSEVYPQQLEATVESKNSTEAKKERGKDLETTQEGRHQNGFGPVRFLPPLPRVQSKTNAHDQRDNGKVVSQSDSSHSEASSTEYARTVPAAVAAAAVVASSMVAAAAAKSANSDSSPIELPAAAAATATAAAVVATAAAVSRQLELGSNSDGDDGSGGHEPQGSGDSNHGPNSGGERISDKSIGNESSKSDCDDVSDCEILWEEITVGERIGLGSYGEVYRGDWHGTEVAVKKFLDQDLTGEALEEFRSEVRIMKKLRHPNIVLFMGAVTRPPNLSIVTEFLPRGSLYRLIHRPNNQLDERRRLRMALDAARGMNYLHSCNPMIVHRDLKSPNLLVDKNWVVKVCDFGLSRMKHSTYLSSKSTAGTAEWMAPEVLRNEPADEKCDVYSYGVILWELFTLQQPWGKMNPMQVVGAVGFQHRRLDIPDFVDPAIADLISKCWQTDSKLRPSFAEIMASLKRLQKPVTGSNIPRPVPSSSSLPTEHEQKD

SMILES | radiometric in vitro kinase assay, autoradiography (His-Raf12) | radiometric in vitro kinase assay, autoradiography (His-OST1; autophosphorylation and histone phosphorylation, labelled compound) | radiometric in vitro kinase assay, autoradiography (His-M3K∂6) | radiometric in vitro kinase assay, autoradiography (His-OST1; 100 µM K252a, 20 min preincubation, histone substrate)
Nc1ncnc2c1ncn2[C@@H]1O[C@H](COP(=O)(O)OP(=O)(O)OP(=O)(O)O)[C@@H](O)[C@H]1O [ATP] | the kinase activity of Raf12, a B2 clade Raf-like kinase, was not inhibited by PP242 | His-OST1 autophosphorylated and phosphorylated histone proteins as a substrate | we conducted protein phosphorylation assays using Raf-like kinases in both of these clades | –
COC(=O)[C@@]1(O)C[C@H]2O[C@]1(C)n1c3ccccc3c3c4c(c5c6ccccc6n2c5c31)C(=O)NC4 [K252a] | – | – | – | Kinase activity of His-OST1 was partially decreased by K252a, a potent kinase inhibitor
